Experimental findings from patent publication US20240391965A1, “STAPLED ANTIMICROBIAL PEPTIDES (STAMPS) AND USES THEREOF” (Lytica Therapeutics, Inc., priority 2021, published 2024) are described below.

Data set [1] is described as follows: 48 hours cytotoxicity assay (CellTiter-Glo), liver toxicity. The data set is classed as cell-based, human. The procedure, abridged:
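Viability from CellTiter-Glo luminescence after StAMP dilution series or vehicle acted on HepG2 cells for 48 h at 37 °C. Cells were grown in EMEM plus 10% FBS and given 4 h to attach before dosing.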
A general note: In ATP-based viability assays light output follows the ATP content of the culture.

In data set [2] the test system is Pseudomonas aeruginosa (P. aeruginosa). It is filed as cell-based. Conditions: microbroth dilution, 20-24 hours at 37° C. As for the experimental part:
(§1) Antimicrobial Activity Assay: The following microbroth dilution protocol was adapted from CLSI to determine the minimum inhibitory concentration (MIC) of StAMPs. Briefly, Mueller-Hinton broth (MHB) or cation-adjusted Mueller-Hinton broth (MHB II) was prepared and autoclaved. Then, a colony of bacterial cells was picked and grown overnight in broth at 37° C. and then diluted and allowed to grow again for 3-4 hours. Serial dilutions of peptide stocks in water (10 μl) were prepared using clear round-bottom polypropylene 96-well plates. Then 90 μl of bacteria in broth was added to give a final inoculum of 5×10^5 CFU/ml. The plates were then covered with porous tape to reduce evaporation and incubated for 20-24 hours at 37° C. The MIC was the minimum peptide concentration at which no visible bacterial growth was observed.
A general note: Dilution methods test growth across graded concentrations, often in twofold steps.

Data set [3] has as its system Escherichia coli (E. coli). It is filed as cell-based. The note with it: microbroth dilution, 20-24 hours at 37° C. As for the experimental part:
as §1

Data set [4] has as its system Klebsiella pneumoniae (K. pneumoniae). It is filed as cell-based. The note with it: microbroth dilution, 20-24 hours at 37° C. Here is the method: as §1
For data set [5], the system named is Staphylococcus aureus (S. aureus). The data set is classed as cell-based. The note with it: microbroth dilution, 20-24 hours at 37° C. Here is the method: as §1
For data set [6], the system named is Acinetobacter baumannii (A. baumannii). The data set is classed as cell-based. Conditions: microbroth dilution, 20-24 hours at 37° C. Here is the method: as §1
Data set [7] in a line: 90 minute cytotoxicity assay (LDH release), renal toxicity. The data set is classed as cell-based. The procedure, abridged:
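Released lactate dehydrogenase, read as absorbance at 490 nm after 10 min with assay reagent, serves as read-out. Renal proximal tubule epithelial cells received peptide serial dilutions or vehicle for 90 min at 37° C after overnight plating.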
(LDH leaks from cells whose membrane has failed.)

Where [8] appears, read: 48 hours of incubation, CellTiter-Glo, read-out: Inhibitory Concentration at 50% Cytotoxicity (IC50) Human Liver Cells (HepG2).

≈ marks a conversion by molar mass, not a printed value. Starred links: 1 amine or outer side, 2 acyl side, 3 side chain; linkers in the order of their positions; H or OH if unused. Positions of bridges follow the written chain, without caps; N, C: chain ends. Residues, ends and D or L forms follow the SMILES beside them. 2,2'Bipyridine(5,5'-diCH2) = c1cc(-c2ccc(C[*:2])cn2)ncc1C[*:1]; Biphenyl(4,4'-CH2)2 = c1cc(-c2ccc(C[*:2])cc2)ccc1C[*:1]; Naphthalene(2,6-diCH2) = c1cc2cc(C[*:2])ccc2cc1C[*:1]; mXylylene = c1cc(C[*:1])cc(C[*:2])c1; pXylylene = c1cc(C[*:2])ccc1C[*:1]; X1 = C(=CC[*:2])C[*:1]

On to `CC[C@H](C)[C@H](NC(=O)CN)C(=O)N[C@@H](Cc1ccccc1)C(=O)N[C@@H](CO)C(=O)N[C@@H](CCCCN)C(=O)N[C@@H](CC(C)C)C(=O)N[C@@H](C)C(=O)NCC(=O)N[C@@H](CCCCN)C(=O)N[C@@H](CCCCN)C(=O)N[C@H](C(=O)N[C@@H](CCCCN)C(=O)N[C@@H](CC(N)=O)C(=O)N[C@H]1CSCc2ccc(nc2)-c2ccc(cn2)CSC[C@@H](C(N)=O)NC(=O)[C@H](CCCCN)NC(=O)[C@H](CC(C)C)NC(=O)CNC(=O)[C@H](CO)NC(=O)[C@H]([C@@H](C)CC)NC(=O)[C@H](CC(C)C)NC1=O)[C@@H](C)CC` [compound 84] (H-GIFSKLAGKKIKNCLISGLKC-NH2; linker 14-21 via 2,2'Bipyridine(5,5'-diCH2); N-terminus assumed), for which the IC50 in data set [1] (setting [8]) turned out to be 105 µg/mL (≈ 43.7 µM). In addition, the “Minimum Inhibitory Concentration (MIC) P. aeruginosa” value in data set [2] was 32 µg/mL. Further, the “Minimum Inhibitory Concentration (MIC) E. coli” value in data set [3] was determined as 4 µg/mL. Also, in data set [4], the “Minimum Inhibitory Concentration (MIC) K. pneumoniae” value stood at 16 µg/mL. In data set [5], the “Minimum Inhibitory Concentration (MIC) S. aureus” value is greater than 64 µg/mL. In addition, the “Minimum Inhibitory Concentration (MIC) A. baumannii” value in data set [6] is 8 µg/mL.
Regarding `CC[C@H](C)[C@H](NC(=O)CN)C(=O)N[C@@H](Cc1ccccc1)C(=O)N[C@@H](CO)C(=O)N[C@@H](CCCCN)C(=O)N[C@@H](CC(C)C)C(=O)N[C@@H](C)C(=O)NCC(=O)N[C@@H](CCCCN)C(=O)N[C@@H](CCCCN)C(=O)N[C@H](C(=O)N[C@@H](CCCCN)C(=O)N[C@H]1CSCc2ccc3cc(ccc3c2)CSC[C@@H](C(=O)NCC(N)=O)NC(=O)[C@H](CC(C)C)NC(=O)CNC(=O)[C@H](CO)NC(=O)[C@H]([C@@H](C)CC)NC(=O)[C@H](CC(C)C)NC(=O)[C@H](CC(C)C)NC1=O)[C@@H](C)CC` [compound 82] (H-GIFSKLAGKKIKCLLISGLCG-NH2; linker 13-20 via Naphthalene(2,6-diCH2); N-terminus assumed), the IC50 in data set [1] (setting [8]) is 23 µg/mL (≈ 10 µM). The “Minimum Inhibitory Concentration (MIC) P. aeruginosa” value in data set [2] is 32 µg/mL. Also, in data set [3], the “Minimum Inhibitory Concentration (MIC) E. coli” value was found to be 4 µg/mL. Also, the “Minimum Inhibitory Concentration (MIC) K. pneumoniae” value in data set [4] is 8 µg/mL. Besides, the “Minimum Inhibitory Concentration (MIC) S. aureus” value in data set [5] is greater than 64 µg/mL. Moreover, in data set [6], the “Minimum Inhibitory Concentration (MIC) A. baumannii” value worked out at 4 µg/mL.
For `CC[C@H](C)[C@H](NC(=O)CN)C(=O)N[C@@H](Cc1ccccc1)C(=O)N[C@@H](CO)C(=O)N[C@@H](CCCCN)C(=O)N[C@H]1CSCc2ccc(cc2)-c2ccc(cc2)CSC[C@@H](C(=O)N[C@@H](CC(C)C)C(=O)N[C@@H](CC(C)C)C(=O)N[C@H](C(=O)N[C@@H](CO)C(=O)NCC(=O)N[C@@H](CC(C)C)C(=O)N[C@@H](CCCCN)C(=O)NCC(N)=O)[C@@H](C)CC)NC(=O)[C@H](CCCCN)NC(=O)[C@H]([C@@H](C)CC)NC(=O)[C@H](CCCCN)NC(=O)[C@H](CCCCN)NC(=O)CNC(=O)[C@H](C)NC1=O` [compound 65] (H-GIFSKCAGKKIKCLLISGLKG-NH2; linker 6-13 via Biphenyl(4,4'-CH2)2; N-terminus assumed), the IC50 in data set [1] was determined as 13 µg/mL (≈ 5.55 µM); in data set [7], 15 µg/mL (≈ 6.4 µM).
Consider `CC[C@H](C)[C@H](NC(=O)CN)C(=O)N[C@@H](Cc1ccccc1)C(=O)N[C@@H](CO)C(=O)N[C@@H](CCCCN)C(=O)N[C@@H](CC(C)C)C(=O)N[C@@H](C)C(=O)NCC(=O)N[C@H]1CSCC=CCSC[C@@H](C(=O)N[C@@H](CC(C)C)C(=O)N[C@@H](CC(C)C)C(=O)N[C@H](C(=O)N[C@@H](CO)C(=O)NCC(=O)N[C@@H](CC(C)C)C(=O)N[C@@H](CCCCN)C(=O)NCC(N)=O)[C@@H](C)CC)NC(=O)[C@H](CCCCN)NC(=O)[C@H]([C@@H](C)CC)NC(=O)[C@H](CCCCN)NC1=O` [compound 43] (H-GIFSKLAGCKIKCLLISGLKG-NH2; linker 9-13 via X1; N-terminus assumed), for which the IC50 in data set [1] and in data set [7] was greater than 200 µg/mL throughout.
`CC[C@H](C)[C@H](NC(=O)CN)C(=O)N[C@@H](Cc1ccccc1)C(=O)N[C@@H](CO)C(=O)N[C@@H](CCCCN)C(=O)N[C@@H](CC(C)C)C(=O)N[C@H]1CSCc2cccc(c2)CSC[C@@H](C(=O)N[C@@H](CCCCN)C(=O)N[C@@H](CC(N)=O)C(=O)N[C@@H](CC(C)C)C(=O)N[C@@H](CC(C)C)C(=O)N[C@H](C(=O)N[C@@H](CO)C(=O)N[C@@H](C)C(=O)N[C@@H](CC(C)C)C(=O)N[C@@H](CCCCN)C(=O)NCC(=O)O)[C@@H](C)CC)NC(=O)[C@H](CCCCN)NC(=O)[C@H](CCCCN)NC(=O)[C@H](C)NC1=O` [compound 99] (H-GIFSKLCAKKCKNLLISALKG-OH; linker 7-11 via mXylylene; N-terminus assumed): the results for the IC50 in data set [1] and in data set [7] were 59 µg/mL (≈ 25.2 µM) and 45 µg/mL (≈ 19.2 µM), respectively.
The like results for `CC[C@H](C)[C@H](NC(=O)CN)C(=O)N[C@@H](Cc1ccccc1)C(=O)N[C@@H](CO)C(=O)N[C@@H](CCCCN)C(=O)N[C@@H](CC(C)C)C(=O)N[C@@H](C)C(=O)NCC(=O)N[C@@H](CCCCN)C(=O)N[C@@H](CCCCN)C(=O)N[C@H](C(=O)N[C@@H](CCCCN)C(=O)N[C@@H](CC(N)=O)C(=O)N[C@H]1CSCC=CCSC[C@@H](C(=O)N[C@@H](CC(C)C)C(=O)N[C@@H](CCCCN)C(=O)NCC(N)=O)NC(=O)[C@H](CO)NC(=O)[C@H]([C@@H](C)CC)NC(=O)[C@H](CC(C)C)NC1=O)[C@@H](C)CC` [compound 28] (H-GIFSKLAGKKIKNCLISCLKG-NH2; linker 14-18 via X1; N-terminus assumed) were, in that order, greater than 200 µg/mL and greater than 200 µg/mL.
On the same counts, the results for `CC[C@H](C)[C@H](NC(=O)CN)C(=O)N[C@@H](Cc1ccccc1)C(=O)N[C@@H](CO)C(=O)N[C@@H](CCCCN)C(=O)N[C@@H](CC(C)C)C(=O)N[C@@H](C)C(=O)NCC(=O)N[C@@H](CCCCN)C(=O)N[C@@H](CCCCN)C(=O)N[C@H](C(=O)N[C@@H](CCCCN)C(=O)N[C@H]1CSCc2ccc(cc2)CSC[C@@H](C(=O)NCC(=O)N[C@@H](CC(C)C)C(=O)N[C@@H](CCCCN)C(=O)NCC(N)=O)NC(=O)[C@H]([C@@H](C)CC)NC(=O)[C@H](CC(C)C)NC(=O)[C@H](CC(C)C)NC1=O)[C@@H](C)CC` [compound 24] (H-GIFSKLAGKKIKCLLICGLKG-NH2; linker 13-17 via pXylylene; N-terminus assumed) are 103 µg/mL (≈ 44.9 µM) and 54 µg/mL (≈ 23.6 µM).
The like results for `CC[C@H](C)[C@H](NC(=O)CN)C(=O)N[C@@H](Cc1ccccc1)C(=O)N[C@@H](CO)C(=O)N[C@@H](CCCCN)C(=O)N[C@@H](CC(C)C)C(=O)N[C@@H](C)C(=O)NCC(=O)N[C@@H](CCCCN)C(=O)N[C@@H](CCCCN)C(=O)N[C@H](C(=O)N[C@@H](CCCCN)C(=O)N[C@@H](CC(N)=O)C(=O)N[C@@H](CC(C)C)C(=O)N[C@@H](CC(C)C)C(=O)N[C@H]1CSCC=CCSC[C@@H](C(=O)NCC(N)=O)NC(=O)[C@H](CC(C)C)NC(=O)CNC(=O)[C@H](CO)NC1=O)[C@@H](C)CC` [compound 34] (H-GIFSKLAGKKIKNLLCSGLCG-NH2; linker 16-20 via X1; N-terminus assumed) were, in that order, 119 µg/mL (≈ 54 µM) and roughly 200 µg/mL (≈ 90.8 µM).
As to `CC[C@H](C)[C@H](NC(=O)CN)C(=O)N[C@@H](Cc1ccccc1)C(=O)N[C@@H](CO)C(=O)N[C@@H](CCCCN)C(=O)N[C@@H](CC(C)C)C(=O)N[C@H]1CSCc2cccc(c2)CSC[C@@H](C(=O)N[C@@H](CCCCN)C(=O)N[C@@H](CC(N)=O)C(=O)N[C@@H](CC(C)C)C(=O)N[C@@H](CC(C)C)C(=O)N[C@H](C(=O)N[C@@H](CO)C(=O)NCC(=O)N[C@@H](CC(C)C)C(=O)N[C@@H](CCCCN)C(=O)NCC(=O)N[C@@H](C)C(=O)N[C@@H](CCCCN)C(=O)O)[C@@H](C)CC)NC(=O)[C@H](CCCCN)NC(=O)[C@H](CCCCN)NC(=O)CNC1=O` [compound 96] (H-GIFSKLCGKKCKNLLISGLKGAK-OH; linker 7-11 via mXylylene; N-terminus assumed), the IC50 in data set [1] amounted to 193 µg/mL (≈ 76.9 µM); in data set [7], 153 µg/mL (≈ 61 µM).
For the molecule `CC[C@H](C)[C@H](NC(=O)CN)C(=O)N[C@@H](Cc1ccccc1)C(=O)N[C@H]1CSCc2cccc(c2)CSC[C@@H](C(=O)N[C@@H](CCCCN)C(=O)N[C@@H](CCCCN)C(=O)N[C@H](C(=O)N[C@@H](CCCCN)C(=O)N[C@@H](CC(N)=O)C(=O)N[C@@H](CC(C)C)C(=O)N[C@@H](CC(C)C)C(=O)N[C@H](C(=O)N[C@@H](CO)C(=O)NCC(=O)N[C@@H](CC(C)C)C(=O)N[C@@H](CCCCN)C(=O)NCC(N)=O)[C@@H](C)CC)[C@@H](C)CC)NC(=O)[C@H](C)NC(=O)[C@H](CC(C)C)NC(=O)[C@H](CCCCN)NC1=O` [compound 5] (H-GIFCKLACKKIKNLLISGLKG-NH2; linker 4-8 via mXylylene; N-terminus assumed), the IC50 in data set [1] is 23 µg/mL (≈ 9.79 µM); in data set [7], 14 µg/mL (≈ 5.96 µM).
